According to patent US12686689B2, “HPK1 inhibitor, preparation method therefor and use thereof” (WIGEN BIOMEDICINE TECHNOLOGY (SHANGHAI) CO., LTD., priority 2020, dated 2026):

Target: HPK1 (Homo sapiens, UniProt Q92918)
Test: Inhibitory effect against enzyme activity of HPK1 (lantha Screen, PKC substrate)
Type: biochemical
Settings: class symbols defined as IC50 ranges, read-out: Inhibition rate (%)
Method: Example 130: Assay of Inhibitory Effect of Compound Against Enzyme Activity of HPK1
The inhibitory effect of the compound against the enzyme activity of HPK1 was determined by using a lantha Screen method with PKC as a substrate. The process comprises the following specific steps: the HPK1 protein was incubated with the serially-diluted compound at 28° C. for 10 min followed by addition of fluoroescein-labeled PKC substrate and ATP to react for 90 min. After termination of the reaction, a Terbium-labeled antibody against phosphorylated PKC was added and incubated for 60 min. The energy transfer of Teribium and fluoroscein was monitored by detecting luminescence at 520 nm and 450 nm to quantify PKC as the level of phosphorylation of […]. Inhibition % and IC50 of the compound were calculated compared to the control group.

Sequence of HPK1 (Q92918 whole entry): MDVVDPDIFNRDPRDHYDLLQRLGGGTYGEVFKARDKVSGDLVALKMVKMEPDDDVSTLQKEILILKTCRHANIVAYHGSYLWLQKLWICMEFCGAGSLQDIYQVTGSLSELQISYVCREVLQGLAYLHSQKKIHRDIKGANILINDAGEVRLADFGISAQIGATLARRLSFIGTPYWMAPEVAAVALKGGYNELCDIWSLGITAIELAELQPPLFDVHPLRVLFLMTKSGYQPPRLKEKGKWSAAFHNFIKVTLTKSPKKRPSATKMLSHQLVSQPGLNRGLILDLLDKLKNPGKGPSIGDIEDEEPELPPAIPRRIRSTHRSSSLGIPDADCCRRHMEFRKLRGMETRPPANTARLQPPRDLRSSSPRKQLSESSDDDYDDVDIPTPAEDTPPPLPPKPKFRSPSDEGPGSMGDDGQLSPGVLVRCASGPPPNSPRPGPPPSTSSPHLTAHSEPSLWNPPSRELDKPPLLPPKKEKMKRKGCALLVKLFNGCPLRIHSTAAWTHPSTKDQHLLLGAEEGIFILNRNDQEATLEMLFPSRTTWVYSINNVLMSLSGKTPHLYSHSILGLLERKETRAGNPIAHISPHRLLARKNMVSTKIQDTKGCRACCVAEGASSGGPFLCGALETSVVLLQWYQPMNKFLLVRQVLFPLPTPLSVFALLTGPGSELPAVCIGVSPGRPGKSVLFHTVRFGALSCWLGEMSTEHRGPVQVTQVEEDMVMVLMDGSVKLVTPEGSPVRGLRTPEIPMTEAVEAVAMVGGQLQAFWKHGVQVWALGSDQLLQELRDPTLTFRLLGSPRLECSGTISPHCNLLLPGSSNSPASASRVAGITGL

SMILES	IC50 [nM]
CN1CCN2c3ccc(-c4n[nH]c5cc(C#N)c(-c6cnc7ccnn7c6)cc45)cc3OCC2C1 (stereo not drawn) [Compound 58]	≤ 10
CN1CCN2c3ccc(-c4n[nH]c5cc(C#N)c(-c6c(F)cc(NC(=O)CC#N)cc6F)cc45)cc3OCC2C1 (stereo not drawn) [Compound 30]	≤ 10
CN1CCN2c3ccc(-c4n[nH]c5cc(C#N)c(-c6cncc7ccccc67)cc45)cc3OCC2C1 (stereo not drawn) [Compound 54]	10 to 100
CCNCc1cc(F)c(-c2cc3c(-c4ccc5c(c4)OCC4CN(C)CCN54)n[nH]c3cc2C#N)c(F)c1 (stereo not drawn) [Compound 21]	≤ 10
CNCc1cc(F)c(-c2cc3c(-c4ccc5c(c4)OCC4CN(C)CCN54)n[nH]c3cc2C#N)c(C(F)(F)F)c1 (stereo not drawn) [Compound 19]	≤ 10
CNCc1cc(F)c(-c2ncc3[nH]nc(-c4ccc5c(c4)OCC4CN(C)CCN54)c3n2)c(F)c1 (stereo not drawn) [Compound 81]	10 to 100
CN1CCN2c3ccc(-c4cnc5[nH]cc(-c6ccc(C(=O)C7CNC7)cc6)c5c4)cc3OCC2C1 (stereo not drawn) [Compound 108]	10 to 100
CN1CCN2c3ccc(-c4n[nH]c5cc(C#N)c(-c6ccc(-c7ccccn7)cc6F)cc45)cc3OCC2C1 (stereo not drawn) [Compound 40]	10 to 100
CNCc1cc(F)c(-c2nc3c(-c4ccc5c(c4)OCC4CN(C)CCN54)c[nH]c3cc2C#N)c(F)c1 (stereo not drawn) [Compound 99]	≤ 10
CN1CCN2c3ccc(-c4n[nH]c5cc(C#N)c(-c6cccc(C#N)c6F)cc45)cc3OCC2C1 (stereo not drawn) [Compound 8]	≤ 10
CN1CCN2c3ccc(-c4n[nH]c5cc(C#N)c(-c6c(F)cccc6F)cc45)cc3OCC2C1 (stereo not drawn) [Compound 4]	10 to 100
CNCc1cc(C)c(-c2cc3c(-c4ccc5c(c4)OCC4CN(C6CC6)CCN54)n[nH]c3cc2C#N)c(F)c1 (stereo not drawn) [Compound 125]	≤ 10
Cc1cccc(F)c1-c1cc2c(-c3ccc4c(c3)OCC3CN(C)CCN43)n[nH]c2cc1C#N (stereo not drawn) [Compound 5]	10 to 100
CN1CCN2c3ccc(-c4n[nH]c5cc(C#N)c(-c6c(F)cc7c(c6F)CC(N)CC7)cc45)cc3OCC2C1 (stereo not drawn) [Compound 39]	≤ 10
CN1CCN2c3ccc(-c4n[nH]c5cc(C#N)c(-c6c(F)cc(OC(=O)N(C)C)cc6F)cc45)cc3OCC2C1 (stereo not drawn) [Compound 34]	10 to 100
Cc1ccccc1-c1cc2c(-c3ccc4c(c3)OCC3CN(C)CCN43)n[nH]c2cc1C#N (stereo not drawn) [Compound 3]	10 to 100
CN1CCN2c3ccc(-c4n[nH]c5cc(C#N)c(-c6cccn7cnnc67)cc45)cc3OCC2C1 (stereo not drawn) [Compound 56]	≤ 10
COc1c(F)ccc(F)c1-c1cc2c(-c3ccc4c(c3)OCC3CN(C)CCN43)n[nH]c2cn1 (stereo not drawn) [Compound 75]	10 to 100
CN1CCN2c3ccc(-c4n[nH]c5cc(C#N)c(-c6c(F)cc(OCc7ccncc7)cc6F)cc45)cc3OCC2C1 (stereo not drawn) [Compound 32]	≤ 10
CN1CCN2c3ccc(-c4n[nH]c5cnc(-c6ccc(C(=O)N7CC(N(C)C)C7)cc6)cc45)cc3OCC2C1 (stereo not drawn) [Compound 76]	10 to 100
CN1CCN2c3ccc(-c4n[nH]c5cc(C#N)c(-c6ccccc6F)cc45)cc3OCC2C1 (stereo not drawn) [Compound 1, 5-(2-fluorophenyl)-3-(3-methyl-1,2,3,4,4a,5-hexahydrobenzo[b]pyrazino[1,2-d][1,4]oxazin-8-yl)-1H-indazole-6-carbonitrile]	≤ 10
COc1ccncc1-c1cc2c(-c3ccc4c(c3)OCC3CN(C)CCN43)n[nH]c2cn1 (stereo not drawn) [Compound 71]	≤ 10

SMILES	IC50 [nM]
COc1cccc(F)c1-c1ccc2[nH]cc(-c3ccc4c(c3)OCC3CN(C)CCN43)c2n1 (stereo not drawn) [Compound 100]	≤ 10
CN1CCN2c3ccc(-c4n[nH]c5cc(C#N)c(-c6c(F)cc(NC(=O)Cc7cccnc7)cc6F)cc45)cc3OCC2C1 (stereo not drawn) [Compound 31]	10 to 100
CN1CCN2c3ccc(-c4n[nH]c5cc(C#N)c(-c6ccn7ncnc7c6)cc45)cc3OCC2C1 (stereo not drawn) [Compound 60]	≤ 10
CN1CCN2c3ccc(-c4n[nH]c5cc(C#N)c(-c6ccccc6F)cc45)cc3OC[C@@H]2C1 [Compound 1-a]	≤ 10
CN1CCN2c3ccc(-c4n[nH]c5cc(C#N)c(-c6ccn7cnnc7c6)cc45)cc3OCC2C1 (stereo not drawn) [Compound 61]	≤ 10
CN1CCN2c3ccc(-c4n[nH]c5cc(C#N)c(-c6c(F)ccc7c6CCCC7N)cc45)cc3OCC2C1 (stereo not drawn) [Compound 38]	≤ 10
CN1CCN2c3ccc(-c4n[nH]c5cc(C#N)c(-c6cnccn6)cc45)cc3OCC2C1 (stereo not drawn) [Compound 49]	≤ 10
CN1CCN2c3ccc(-c4cnc5[nH]nc(-c6ccc(C(=O)N7CC(O)C7)cc6)c5c4)cc3OCC2C1 (stereo not drawn) [Compound 116]	10 to 100
CN1CCN2c3ccc(-c4cnc5[nH]cc(-c6ccc(C(=O)N7CC8(COC8)C7)cc6)c5c4)cc3OCC2C1 (stereo not drawn) [Compound 106]	≤ 10
COc1cccc(F)c1-c1nc2c(-c3ccc4c(c3)OCC3CN(C)CCN43)n[nH]c2cc1C#N (stereo not drawn) [Compound 82]	10 to 100
COc1cccc(F)c1-c1cc2c(-c3ccc4c(c3)OCC3CN(C)CCN43)c[nH]c2cc1C#N (stereo not drawn) [Compound 91]	≤ 10
CN1CCN2c3ccc(-c4cnc5[nH]nc(-c6ccc(C(=O)N7CC(O)C7)cc6)c5n4)cc3OCC2C1 (stereo not drawn) [Compound 119]	10 to 100
CN1CC(C(O)c2ccc(-c3c[nH]c4ncc(-c5ccc6c(c5)OCC5CN(C)CCN65)cc34)cc2)C1 (stereo not drawn) [Compound 111]	≤ 10
CN(C)CCN(C)C(=O)c1ccc(-c2c[nH]c3ncc(-c4ccc5c(c4)OCC4CN(C)CCN54)cc23)cc1 (stereo not drawn) [Compound 105]	≤ 10
CN1CCN2c3ccc(-c4n[nH]c5cc(C#N)c(-c6cccc(C(N)=O)c6F)cc45)cc3OCC2C1 (stereo not drawn) [Compound 9]	≤ 10
CN1CC(CN(C)C(=O)c2ccc(-c3c[nH]c4ncc(-c5ccc6c(c5)OCC5CN(C)CCN65)cc34)cc2)C1 (stereo not drawn) [Compound 107]	≤ 10
CNCc1cc(F)c(-c2nc3c(-c4ccc5c(c4)OCC4CN(C)CCN54)n[nH]c3cc2C#N)c(F)c1 (stereo not drawn) [Compound 84]	≤ 10
CNCc1cc(C)c(-c2cc3c(-c4ccc5c(c4)OCC4CN(C)CCN54)c[nH]c3cn2)c(F)c1 (stereo not drawn) [Compound 89]	≤ 10
COc1ccc(C#N)c(F)c1-c1cc2c(-c3ccc4c(c3)OCC3CN(C)CCN43)n[nH]c2cn1 (stereo not drawn) [Compound 74]	10 to 100
CNCc1cc(F)c(-c2cc3c(-c4ccc5c(c4)OCC4CN(C)CCN54)c[nH]c3cc2C#N)c(F)c1 (stereo not drawn) [Compound 93]	≤ 10
CNS(=O)(=O)c1cccc(-c2cc3c(-c4ccc5c(c4)OCC4CN(C)CCN54)n[nH]c3cc2C#N)c1F (stereo not drawn) [Compound 14]	≤ 10
CNCc1cc(C)c(-c2cc3c(-c4ccc5c(c4)OCC4CN(CCC#N)CCN54)n[nH]c3cc2C#N)c(F)c1 (stereo not drawn) [Compound 129]	≤ 10

SMILES	IC50 [nM]
CN1CCN2c3ccc(-c4n[nH]c5cc(C#N)c(-c6cncnc6)cc45)cc3OCC2C1 (stereo not drawn) [Compound 48]	≤ 10
CN1CCN2c3ccc(-c4n[nH]c5cnc(-c6c(F)cccc6F)cc45)cc3OCC2C1 (stereo not drawn) [Compound 66]	10 to 100
CN1CCN2c3ccc(-c4n[nH]c5cc(C#N)c(-c6ccccc6F)cc45)cc3OC[C@H]2C1 [Compound 1-b]	≤ 10
CNCc1cc(F)c(-c2cc3c(-c4ccc5c(c4)OCC4CN(C)CCN54)n[nH]c3cn2)c(F)c1 (stereo not drawn) [Compound 68]	≤ 10
CN(C)CC(=O)Nc1cc(F)c(-c2cc3c(-c4ccc5c(c4)OCC4CN(C)CCN54)n[nH]c3cc2C#N)c(F)c1 (stereo not drawn) [Compound 27]	≤ 10
CN1CCN2c3ccc(-c4n[nH]c5cc(C#N)c(-c6cnc7nccnc7c6)cc45)cc3OCC2C1 (stereo not drawn) [Compound 53]	≤ 10
CN1CCN2c3ccc(-c4n[nH]c5cc(C#N)c(-c6cccc(C(=O)NCc7ccncc7)c6F)cc45)cc3OCC2C1 (stereo not drawn) [Compound 10]	≤ 10
CN1CCN2c3ccc(-c4n[nH]c5cc(C#N)c(-c6cnc7c(c6)ncn7C)cc45)cc3OCC2C1 (stereo not drawn) [Compound 52]	≤ 10
CN1CCN2c3ccc(-c4n[nH]c5cc(C#N)c(-c6c(F)cc(C(=O)N7CC(O)C7)cc6F)cc45)cc3OCC2C1 (stereo not drawn) [Compound 36]	≤ 10
CN1CCN2c3ccc(-c4n[nH]c5cc(C#N)c(-c6c(F)cc(CC#N)cc6F)cc45)cc3OCC2C1 (stereo not drawn) [Compound 24]	≤ 10
CNCc1cc(C)c(-c2cc3c(-c4ccc5c(c4)OCC4CN(C)CCN54)c[nH]c3cc2C#N)c(F)c1 (stereo not drawn) [Compound 92]	≤ 10
CNC(=O)c1cncc(-c2cc3c(-c4ccc5c(c4)OCC4CN(C)CCN54)n[nH]c3cc2C#N)c1 (stereo not drawn) [Compound 46]	≤ 10
CNCc1cc(F)c(-c2cc3c(-c4ccc5c(c4)OCC4CN(C)CCN54)c[nH]c3cn2)c(F)c1 (stereo not drawn) [Compound 90]	≤ 10
CN1CCN2c3ccc(-c4n[nH]c5cc(C#N)c(-c6cccn7ccnc67)cc45)cc3OCC2C1 (stereo not drawn) [Compound 55]	≤ 10
CN1CCN2c3ccc(-c4n[nH]c5cc(C#N)c(-c6cccn7ncnc67)cc45)cc3OCC2C1 (stereo not drawn) [Compound 57]	≤ 10
COc1cccc(F)c1-c1nc2c(-c3ccc4c(c3)OCC3CN(C)CCN43)c[nH]c2cc1C#N (stereo not drawn) [Compound 97]	10 to 100
CN1CCN2c3ccc(-c4n[nH]c5cc(C#N)c(-c6cccc(NS(C)(=O)=O)c6F)cc45)cc3OCC2C1 (stereo not drawn) [Compound 11]	10 to 100
CN(C)CCN(C)C(=O)c1ccc(-c2n[nH]c3ncc(-c4ccc5c(c4)OCC4CN(C)CCN54)nc23)cc1 (stereo not drawn) [Compound 120]	≤ 10
CN1CCN2c3ccc(-c4cnc5[nH]cc(-c6ccc(OC7CCNCC7)cc6)c5c4)cc3OCC2C1 (stereo not drawn) [Compound 109]	≤ 10
CNCc1cc(C)c(-c2ccc3[nH]cc(-c4ccc5c(c4)OCC4CN(C)CCN54)c3n2)c(F)c1 (stereo not drawn) [Compound 101]	≤ 10
CN(C)CCN(C)C(=O)c1ccc(-c2c[nH]c3ncc(-c4ccc5c(c4)OCC4CN(C)CCN54)nc23)cc1 (stereo not drawn) [Compound 114]	≤ 10
CN1CCN2c3ccc(-c4n[nH]c5cc(C#N)c(-c6c(F)cc(NC(=O)CN7CCCC7)cc6F)cc45)cc3OCC2C1 (stereo not drawn) [Compound 28]	≤ 10
